Patent publication US20220119354A1, “DIAMINO-SUBSTITUTED PYRIDINES AND PYRIMIDINES AS HERBICIDES” (FMC Corporation, priority 2019, published 2022)

Tests used:
Format in all cases: in vivo
corn (Zea mays) = assay: Test A postemergence, corn; settings: 0 to 100 scale; for Plant response rating, Corn: 0 no effect, 100 complete control
Method in brief: (§1)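 Visual injury scored against untreated controls about 10 d after treatment, scale 0 = no effect to 100 = complete control. Compounds, formulated with surfactant in a non-phytotoxic solvent, went on as directed soil spray preemergence or onto 2–10 cm, one- to two-leaf plants postemergence; loam–sand soil, greenhouse.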

[1] = system: ragweed (common ragweed, Ambrosia elatior); assay: Test A postemergence, ragweed; settings: 0 to 100 scale; for Plant response rating, Ragweed: 0 no effect, 100 complete control
Method in brief: as §1

kochia (Kochia scoparia) [2] = assay: Test A postemergence, kochia; settings: 0 to 100 scale; for Plant response rating, Kochia: 0 no effect, 100 complete control
Method in brief: as §1

[3] = system: ryegrass, Italian (Lolium multiflorum); assay: Test A preemergence, Italian ryegrass; settings: 0 to 100 scale, 0 is no effect, 100 is complete control
Method in brief: as §1

[4] = system: blackgrass (Alopecurus myosuroides); assay: Test A postemergence, blackgrass; settings: 0 to 100 scale; for Plant response rating, Blackgrass: 0 no effect, 100 complete control
Method in brief: as §1

[5] = system: sedge, umbrella (small-flower umbrella sedge, Cyperus difformis); assay: Test B flooded paddy test, umbrella sedge; settings: Flood, 250 g ai/ha, applied to paddy water, 2-leaf stage, visual evaluation after 13 to 15 d
Method in brief: (§2)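 Pots flooded to 3 cm above the soil when treated, with test compound added straight to the water and the flood maintained. Treated plants were at the 2-leaf stage and stayed 13–15 d in greenhouse. Response versus untreated controls scored visually from 0 (no effect) to 100 (complete control).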

rice (Oryza sativa) = assay: Test B flooded paddy test, rice; settings: Flood, 250 g ai/ha, applied to paddy water, 2-leaf stage, visual evaluation after 13 to 15 d
Method in brief: as §2

[6] = system: pigweed (Amaranthus retroflexus); assay: Test A preemergence, pigweed; settings: 0 to 100 scale, 0 is no effect, 100 is complete control
Method in brief: as §1

[7] = system: pigweed (Amaranthus retroflexus); assay: Test A postemergence, pigweed; settings: 0 to 100 scale; for Plant response rating, Pigweed: 0 no effect, 100 complete control
Method in brief: as §1

[8] = system: wheat (Triticum aestivum); assay: Test A postemergence, wheat; settings: 0 to 100 scale; for Plant response rating, Wheat: 0 no effect, 100 complete control
Method in brief: as §1

[9] = system: foxtail, giant (Setaria faberii); assay: Test A postemergence, giant foxtail; settings: 0 to 100 scale; for Plant response rating, Foxtail, Giant: 0 no effect, 100 complete control
Method in brief: as §1

[10] = system: ragweed (common ragweed, Ambrosia elatior); assay: Test A preemergence, ragweed; settings: 0 to 100 scale, 0 is no effect, 100 is complete control
Method in brief: as §1

kochia (Kochia scoparia) [11] = assay: Test A preemergence, kochia; settings: 0 to 100 scale, 0 is no effect, 100 is complete control
Method in brief: as §1

[12] = system: ryegrass, Italian (Lolium multiflorum); assay: Test A postemergence, Italian ryegrass; settings: 0 to 100 scale; for Plant response rating, Ryegrass, Italian: 0 no effect, 100 complete control
Method in brief: as §1

[13] = system: barnyardgrass (Echinochloa crus-galli); assay: Test A postemergence, barnyardgrass; settings: 0 to 100 scale; for Plant response rating, Barnyardgrass: 0 no effect, 100 complete control
Method in brief: as §1

[14] = system: barnyardgrass (Echinochloa crus-galli); assay: Test B flooded paddy test, barnyardgrass; settings: Flood, 250 g ai/ha, applied to paddy water, 2-leaf stage, visual evaluation after 13 to 15 d
Method in brief: as §2

[15] = system: barnyardgrass (Echinochloa crus-galli); assay: Test A preemergence, barnyardgrass; settings: 0 to 100 scale, 0 is no effect, 100 is complete control
Method in brief: as §1

[16] = system: galium (catchweed bedstraw, Galium aparine); assay: Test A postemergence, galium; settings: 0 to 100 scale; for Plant response rating, Galium: 0 no effect, 100 complete control
Method in brief: as §1

[17] = system: foxtail, giant (Setaria faberii); assay: Test A preemergence, giant foxtail; settings: 0 to 100 scale, 0 is no effect, 100 is complete control
Method in brief: as §1

[18] = system: ducksalad (Heteranthera limosa); assay: Test B flooded paddy test, ducksalad; settings: Flood, 250 g ai/ha, applied to paddy water, 2-leaf stage, visual evaluation after 13 to 15 d
Method in brief: as §2

[19] = 500 g ai/ha, 0 is no effect, 100 is complete control

## CC(Nc1ncc([N+](=O)[O-])c(N)n1)c1cc2ccccc2s1 (stereo not drawn) [Compound 99]
Corn (Zea mays); 125 g ai/ha
  Plant response rating, Corn: 0
Corn (Zea mays); 500 g ai/ha
  Plant response rating, Corn: 30
[1]; 125 g ai/ha
  Plant response rating, Ragweed: 20
[1]; 500 g ai/ha
  Plant response rating, Ragweed: 80
Kochia (Kochia scoparia) [2]; 125 g ai/ha
  Plant response rating, Kochia: 50
Kochia (Kochia scoparia) [2]; 500 g ai/ha
  Plant response rating, Kochia: 80
[3]; 125 g ai/ha
  Ryegrass, Italian plant response rating: 20
[3]; 500 g ai/ha
  Ryegrass, Italian plant response rating: 80
[4]; 125 g ai/ha
  Plant response rating, Blackgrass: 0
[4]; 500 g ai/ha
  Plant response rating, Blackgrass: 0
[5]
  Plant response rating, Sedge, Umbrella (0 to 100 scale, 0 is no effect, 100 is complete control): 0
Rice (Oryza sativa)
  Plant response rating, Rice (0 to 100 scale, 0 is no effect, 100 is complete control): 0
[6]; 125 g ai/ha
  Pigweed plant response rating: 40
[6]; 500 g ai/ha
  Pigweed plant response rating: 100
[7]; 125 g ai/ha
  Plant response rating, Pigweed: 50
[7]; 500 g ai/ha
  Plant response rating, Pigweed: 70
[8]; 125 g ai/ha
  Plant response rating, Wheat: 0
[8]; 500 g ai/ha
  Plant response rating, Wheat: 0
[9]; 125 g ai/ha
  Plant response rating, Foxtail, Giant: 10
[9]; 500 g ai/ha
  Plant response rating, Foxtail, Giant: 60
[10]; 125 g ai/ha
  Ragweed plant response rating: 90
[10]; 500 g ai/ha
  Ragweed plant response rating: 100
Kochia (Kochia scoparia) [11]; 125 g ai/ha
  Kochia plant response rating: 0
Kochia (Kochia scoparia) [11]; 500 g ai/ha
  Kochia plant response rating: 90
[12]; 125 g ai/ha
  Plant response rating, Ryegrass, Italian: 0
[12]; 500 g ai/ha
  Plant response rating, Ryegrass, Italian: 40
[13]; 125 g ai/ha
  Plant response rating, Barnyardgrass: 30
[13]; 500 g ai/ha
  Plant response rating, Barnyardgrass: 70
[14]
  Plant response rating, Barnyardgrass (0 to 100 scale, 0 is no effect, 100 is complete control): 0
[15]; 125 g ai/ha
  Barnyardgrass plant response rating: 40
[15]; 500 g ai/ha
  Barnyardgrass plant response rating: 90
[16]; 125 g ai/ha
  Plant response rating, Galium: 20
[16]; 500 g ai/ha
  Plant response rating, Galium: 70
[17]; 125 g ai/ha
  Foxtail, Giant plant response rating: 70
[17]; 500 g ai/ha
  Foxtail, Giant plant response rating: 100
[18]
  Plant response rating, Ducksalad (0 to 100 scale, 0 is no effect, 100 is complete control): 0

## CC(Nc1ncc(S(C)(=O)=O)c(N)n1)c1cc2ccccc2s1 (stereo not drawn) [Compound 107]
Corn (Zea mays); 125 g ai/ha
  Plant response rating, Corn: 0
Corn (Zea mays); 500 g ai/ha
  Plant response rating, Corn: 30
[1]; 125 g ai/ha
  Plant response rating, Ragweed: 40
[1]; 500 g ai/ha
  Plant response rating, Ragweed: 100
Kochia (Kochia scoparia) [2]; 125 g ai/ha
  Plant response rating, Kochia: 50
Kochia (Kochia scoparia) [2]; 500 g ai/ha
  Plant response rating, Kochia: 90
[3]; 125 g ai/ha
  Ryegrass, Italian plant response rating: 50
[3]; 500 g ai/ha
  Ryegrass, Italian plant response rating: 90
[4]; 125 g ai/ha
  Plant response rating, Blackgrass: 0
[4]; 500 g ai/ha
  Plant response rating, Blackgrass: 80
[5]
  Plant response rating, Sedge, Umbrella (0 to 100 scale, 0 is no effect, 100 is complete control): 75
Rice (Oryza sativa)
  Plant response rating, Rice (0 to 100 scale, 0 is no effect, 100 is complete control): 0
[6]; 125 g ai/ha
  Pigweed plant response rating: 60
[6]; 500 g ai/ha
  Pigweed plant response rating: 100
[7]; 125 g ai/ha
  Plant response rating, Pigweed: 80
[7]; 500 g ai/ha
  Plant response rating, Pigweed: 100
[8]; 125 g ai/ha
  Plant response rating, Wheat: 0
[8]; 500 g ai/ha
  Plant response rating, Wheat: 30
[9]; 125 g ai/ha
  Plant response rating, Foxtail, Giant: 10
[9]; 500 g ai/ha
  Plant response rating, Foxtail, Giant: 60
[10]; 125 g ai/ha
  Ragweed plant response rating: 100
[10]; 500 g ai/ha
  Ragweed plant response rating: 100
Kochia (Kochia scoparia) [11]; 125 g ai/ha
  Kochia plant response rating: 80
Kochia (Kochia scoparia) [11]; 500 g ai/ha
  Kochia plant response rating: 100
[12]; 125 g ai/ha
  Plant response rating, Ryegrass, Italian: 0
[12]; 500 g ai/ha
  Plant response rating, Ryegrass, Italian: 40
[13]; 125 g ai/ha
  Plant response rating, Barnyardgrass: 20
[13]; 500 g ai/ha
  Plant response rating, Barnyardgrass: 100
[14]
  Plant response rating, Barnyardgrass (0 to 100 scale, 0 is no effect, 100 is complete control): 45
[15]; 125 g ai/ha
  Barnyardgrass plant response rating: 20
[15]; 500 g ai/ha
  Barnyardgrass plant response rating: 100
[16]; 125 g ai/ha
  Plant response rating, Galium: 70
[16]; 500 g ai/ha
  Plant response rating, Galium: 80
[17]; 125 g ai/ha
  Foxtail, Giant plant response rating: 30
[17]; 500 g ai/ha
  Foxtail, Giant plant response rating: 100
[18]
  Plant response rating, Ducksalad (0 to 100 scale, 0 is no effect, 100 is complete control): 70

## CCC(Nc1ncc(C(F)(F)F)c(N)n1)c1coc2ccccc12 (racemic) [Compound 53]
Corn (Zea mays); 125 g ai/ha
  Plant response rating, Corn: 0
Corn (Zea mays); [19]
  Corn plant response rating: 0
[1]; 125 g ai/ha
  Plant response rating, Ragweed: 20
[1]; [19]
  Ragweed plant response rating: 80
Kochia (Kochia scoparia) [2]; 125 g ai/ha
  Plant response rating, Kochia: 50
Kochia (Kochia scoparia) [2]; [19]
  Kochia plant response rating: 90
[3]; 125 g ai/ha
  Ryegrass, Italian plant response rating: 20
[3]; 500 g ai/ha
  Ryegrass, Italian plant response rating: 20
[4]; 125 g ai/ha
  Plant response rating, Blackgrass: 0
[4]; [19]
  Blackgrass plant response rating: 0
[5]
  Plant response rating, Sedge, Umbrella (0 to 100 scale, 0 is no effect, 100 is complete control): 0
Rice (Oryza sativa)
  Plant response rating, Rice (0 to 100 scale, 0 is no effect, 100 is complete control): 0
[6]; 125 g ai/ha
  Pigweed plant response rating: 80
[6]; 500 g ai/ha
  Pigweed plant response rating: 90
[7]; 125 g ai/ha
  Plant response rating, Pigweed: 60
[7]; [19]
  Pigweed plant response rating: 100
[8]; 125 g ai/ha
  Plant response rating, Wheat: 0
[8]; [19]
  Wheat plant response rating: 0
[9]; 125 g ai/ha
  Plant response rating, Foxtail, Giant: 10
[9]; [19]
  Foxtail, Giant plant response rating: 30
[10]; 125 g ai/ha
  Ragweed plant response rating: 100
[10]; 500 g ai/ha
  Ragweed plant response rating: 90
Kochia (Kochia scoparia) [11]; 125 g ai/ha
  Kochia plant response rating: 60
Kochia (Kochia scoparia) [11]; 500 g ai/ha
  Kochia plant response rating: 90
[12]; 125 g ai/ha
  Plant response rating, Ryegrass, Italian: 20
[12]; [19]
  Ryegrass, Italian plant response rating: 60
[13]; 125 g ai/ha
  Plant response rating, Barnyardgrass: 0
[13]; [19]
  Barnyardgrass plant response rating: 30
[14]
  Plant response rating, Barnyardgrass (0 to 100 scale, 0 is no effect, 100 is complete control): 0
[15]; 125 g ai/ha
  Barnyardgrass plant response rating: 0
[15]; 500 g ai/ha
  Barnyardgrass plant response rating: 80
[16]; 125 g ai/ha
  Plant response rating, Galium: 30
[16]; [19]
  Galium plant response rating: 80
[17]; 125 g ai/ha
  Foxtail, Giant plant response rating: 90
[17]; 500 g ai/ha
  Foxtail, Giant plant response rating: 90
[18]
  Plant response rating, Ducksalad (0 to 100 scale, 0 is no effect, 100 is complete control): 0
